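In this assay, cells in 96-well plates receive the compound at five concentrations for 48 hours. Endpoints are linearly interpolated between the surrounding concentrations. GI50 is the concentration that inhibits growth by half.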 Calls of active or inactive are those of the source. Cut-off read from the data, not from the text of the source: active = GI50 up to about 1.1 µM and inactive = higher. Non-standard residues stand in square brackets, D forms with d. Residues, ends and D or L forms follow the SMILES beside them. *: point of attachment. Phe(4-NO2) = N[CH](Cc1ccc([N+](=O)[O-])cc1)C(=O)O; Boc = CC(C)(C)OC(=O)*
What was measured:
Test in all cases: NCI-60 cell line screen, 48 h
MOLT-4 = system: MOLT-4
COLO 205 = system: COLO 205
NCI-H522 = system: NCI-H522
IGROV-1 = system: IGROV-1
SR = system: SR
M14 = system: M14
ACHN = system: ACHN
SN12C = system: SN12C
SF-268 = system: SF-268
UO-31 = system: UO-31
Malme-3M = system: Malme-3M
RXF 393 = system: RXF 393
SK-MEL-5 = system: SK-MEL-5
XF498 = system: XF498
UACC-257 = system: UACC-257
OVCAR-3 = system: OVCAR-3
A498 = system: A498
OVCAR-4 = system: OVCAR-4
LOX IMVI = system: LOX IMVI
MDA-MB-231 = system: MDA-MB-231

Measured: GI50

O=C1CC23CCCCCCCCCCC2(C1)CC(=O)C3 (centres undefined)
inactive: MOLT-4 18.7 µM | COLO 205 18.4 µM | NCI-H522 18.6 µM | IGROV-1 25.7 µM | SR 19.9 µM | M14 16.6 µM | ACHN 29 µM | SN12C 17.6 µM | SF-268 51.9 µM | UO-31 20.8 µM | Malme-3M 24.6 µM | RXF 393 25.4 µM | SK-MEL-5 17.4 µM | XF498 21.5 µM | UACC-257 34.8 µM | OVCAR-3 17.7 µM

CCOC(=O)NC1C2CC(=O)C(O2)C1OCc1ccccc1 (centres undefined)
inactive: A498 > 100 µM | MOLT-4 > 100 µM | COLO 205 > 100 µM | IGROV-1 > 100 µM | OVCAR-4 > 100 µM | M14 > 100 µM | ACHN > 100 µM | SN12C > 100 µM | SF-268 > 100 µM | UO-31 78 µM | Malme-3M > 100 µM | RXF 393 > 100 µM | SK-MEL-5 > 100 µM | LOX IMVI > 100 µM | XF498 > 100 µM | UACC-257 > 100 µM | OVCAR-3 > 100 µM

C/C(CC(=O)NCCc1ccccc1)=N\NC(=O)C[n+]1ccccc1
inactive: A498 > 100 µM | MOLT-4 > 100 µM | COLO 205 > 100 µM | NCI-H522 > 100 µM | IGROV-1 > 100 µM | M14 > 100 µM | ACHN > 100 µM | SF-268 > 100 µM | UO-31 > 100 µM | Malme-3M > 100 µM | RXF 393 > 100 µM | SK-MEL-5 > 100 µM | LOX IMVI > 100 µM | XF498 > 100 µM | UACC-257 > 100 µM | OVCAR-3 > 100 µM

C[Si](C)(C)CC(N)=O
inactive: MOLT-4 > 100 µM | COLO 205 > 100 µM | IGROV-1 > 100 µM | OVCAR-4 > 100 µM | M14 > 100 µM | ACHN > 100 µM | SN12C > 100 µM | UO-31 > 100 µM | Malme-3M > 100 µM | RXF 393 > 100 µM | SK-MEL-5 > 100 µM | LOX IMVI > 100 µM | XF498 > 100 µM | UACC-257 > 100 µM | OVCAR-3 > 100 µM

N#CC(C(=O)CCC(=O)Nc1ccc(Cl)c(Cl)c1)c1ccccc1 (centres undefined)
inactive: A498 > 100 µM | MOLT-4 > 100 µM | IGROV-1 > 100 µM | OVCAR-4 > 100 µM | M14 > 100 µM | ACHN > 100 µM | SN12C > 100 µM | SF-268 > 100 µM | UO-31 > 100 µM | Malme-3M > 100 µM | RXF 393 > 100 µM | SK-MEL-5 > 100 µM | XF498 > 100 µM | UACC-257 > 100 µM | OVCAR-3 > 100 µM

CN(C)c1ccc(/C=C2\N=C(c3ccc(N)cc3)OC2=O)cc1
inactive: A498 > 100 µM | MOLT-4 > 100 µM | COLO 205 > 100 µM | NCI-H522 > 100 µM | IGROV-1 > 100 µM | OVCAR-4 > 100 µM | M14 > 100 µM | ACHN > 100 µM | SN12C > 100 µM | SF-268 > 100 µM | UO-31 > 100 µM | Malme-3M > 100 µM | SK-MEL-5 > 100 µM | LOX IMVI > 100 µM | XF498 > 100 µM | UACC-257 > 100 µM | OVCAR-3 > 100 µM

COC(=O)CCC(NC(=O)OC(C)(C)C)C(=O)NC(Cc1ccc([N+](=O)[O-])cc1)C(=O)NC(CCC(=O)OC)C(=O)OC (centres undefined) (Boc-Glu(OMe)-[Phe(4-NO2)]-Glu(OMe)-OMe; configuration not given here)
inactive: A498 > 100 µM | MOLT-4 24.9 µM | COLO 205 > 100 µM | NCI-H522 > 100 µM | IGROV-1 > 100 µM | OVCAR-4 > 100 µM | SR 28.8 µM | M14 > 100 µM | ACHN > 100 µM | SN12C 51.9 µM | SF-268 > 100 µM | UO-31 > 100 µM | MDA-MB-231 > 100 µM | Malme-3M > 100 µM | RXF 393 > 100 µM | SK-MEL-5 > 100 µM | LOX IMVI 26.6 µM | UACC-257 11.3 µM | OVCAR-3 > 100 µM

C#CCNC(Cc1c[nH]cn1)C(=O)O (centres undefined)
inactive: A498 > 100 µM | MOLT-4 > 100 µM | COLO 205 > 100 µM | NCI-H522 > 100 µM | IGROV-1 > 100 µM | OVCAR-4 > 100 µM | SR > 100 µM | M14 > 100 µM | ACHN > 100 µM | SN12C > 100 µM | SF-268 > 100 µM | UO-31 > 100 µM | MDA-MB-231 > 100 µM | Malme-3M > 100 µM | RXF 393 > 100 µM | SK-MEL-5 > 100 µM | LOX IMVI > 100 µM | UACC-257 > 100 µM | OVCAR-3 > 100 µM
